Experiments:
Format in all cases: physicochemical
[1] = Solubility test in PEG1000
Description: About 0.5 g of compound (a) was weighed into 4 mL glass vials, 1.5 g of molten PEG1000 were then added and kept stirring at 40° C. or 50° C. at 700 rpm. After stirring for 24 hours, the obtained mixtures were transferred into a filter centrifugal tube and centrifuged at 40° C. for 1 minute at 14000 rpm rate. The solution in the bottom of filter centrifugal tube wad weighed into 25 mL volumetric flasks (about 25 mg), diluent was added ACN:H2O=1:1 v/v, ultrasonicated for 10 min and more diluent was added to scale and analyzed by UPLC (see method above).

[2] = Solubility of compound (a) in mixed excipients (TPGS with Precirol ATO 5, PEG6000 or PEG3350)
Description: The solubility of these mixed excipients with compound (a) was then tested. Different ratios of the excipients were mixed at different temperatures (Table 6); then compound (a) was added and the mixtures stirred at the same temperature. The samples were analyzed by UPLC (see method above).

[3] = Solubility test in Gelucire 50/13 and PEG 3350
Description: Compound (a) was weighed into a 1.5 mL HPLC vial, added about 1 mL or 880 mg of molten media, then kept stirring at different temperature at 700 rpm (see details in Table 1). Compound (a) was added until a suspension was visually observable. After stirring for about 24 hours, the obtained mixtures were quickly transferred to a filter centrifugal tube and centrifuged at 40° C. for 1 minute at 14000 rpm rate. The solution in the bottom of the filter centrifugal tube was weighed into 10 mL or 25 mL volumetric flasks (about 15-20 mg), diluents were added (ACN: water=1:1 v/v for PEG3350 or MeOH:water=8:2 v/v for Gelucire 50/13), ultrasonicated for 10 min and more diluent was added to scale and analyzed by UPLC (see method above).

[4] = Solubility test in TPGS with different ratios of PEG1000
Description: About 0.2 g of compound (a) was weighed into 1.5 mL HPLC vials, 0.6 g of molten TPGS, TPGS with 5%, 10% or 15% PEG1000 (in w/w of TPGS) were then added and kept stirring at 45° C. at 700 rpm. Additionally to each of these mixtures, 100 ppm of Ascorbic Palmitate were added. After stirring for 24 hours, they were transferred into filter centrifugal tube and centrifuged at 40° C. for 5 minutes at 14000 rpm rate. The solutions in the bottom of filter centrifugal tube were weighed into 25 mL volumetric flasks (about 10-20 mg), diluent was added ACN:H2O=1:1 v/v, ultrasonicated for 10 min and more diluent was added to scale and analyze by UPLC (see method above). The solid residues after solubility test were collected and analyzed by XRPD (the solid residue in TPGS and TPGS with 5% PEG1000 were washed with water at 50° C. 3 times and analyzed by XRPD).
Solubility test of compound (a) in TPGS with different ratio of PEG1000 after stirring at 45° C. for 96 hours were further tested to determine the effect of time on solubility and XRPD pattern.

COc1cc(NC(C(=O)c2c[nH]c3ccc(OC(F)(F)F)cc23)c2ccc(Cl)cc2OC)cc(S(C)(=O)=O)c1 (centres unmarked) [compound (a)]
Solubility ([1]; in PEG1000): about 140 mg/g | Solubility ([1]; in PEG 1000, 40° C., 700 rpm for 24 hours): 141 mg/g | Solubility ([1]; in PEG 1000, 50° C., 700 rpm for 24 hours): 146 mg/g | Solubility ([2]; in TPGS:ATO5 90:10 w/w, 60° C.): 216.1 mg/g | Solubility ([2]; in TPGS:ATO5 90:10 w/w, 65° C.): 219.0 mg/g | Solubility ([2]; in TPGS:ATO5 95:5 w/w, 60° C.): 270.0 mg/g | Solubility ([2]; in TPGS:ATO5 95:5 w/w, 65° C.): 295.5 mg/g | Solubility ([2]; in TPGS:ATO5 98:2 w/w, 60° C.): 228.2 mg/g | Solubility ([2]; in TPGS:ATO5 98:2 w/w, 65° C.): 248.5 mg/g | Solubility ([2]; in TPGS:PEG3350 90:10 w/w, 55° C.): 71.0 mg/g | Solubility ([2]; in TPGS:PEG3350 90:10 w/w, 60° C.): 76.2 mg/g | Solubility ([2]; in TPGS:PEG6000 90:10 w/w, 55° C.): 60.8 mg/g | Solubility ([2]; in TPGS:PEG6000 90:10 w/w, 60° C.): 66.6 mg/g | Solubility ([2]; in TPGS:PEG6000 95:5 w/w, 55° C.): 81.0 mg/g | Solubility ([2]; in TPGS:PEG6000 95:5 w/w, 60° C.): 84.0 mg/g | Solubility ([2]; in TPGS:PEG6000 98:2 w/w, 55° C.): 63.0 mg/g | Solubility ([2]; in TPGS:PEG6000 98:2 w/w, 60° C.): 66.8 mg/g | Solubility ([2]; in the Precirol ATO 5/TPGS system): > 200 mg/g | Solubility ([3]; in Gelucire 50/13, 55° C., 700 rpm for 24 hours): 141 mg/g | Solubility ([3]; in Gelucire 50/13, 60° C., 700 rpm for 24 hours): 148 mg/g | Solubility ([3]; in Gelucire 50/13 after stirring at 55° C. and 60° C. for 24 hours): higher than 120 mg/g | Solubility ([3]; in PEG 3350, 60° C., 700 rpm for 24 hours): 112 mg/g | Solubility ([3]; in PEG 3350, 65° C., 700 rpm for 24 hours): 121 mg/g | Solubility ([3]; in PEG 3350 at both 60° C. and 65° C.): ≤ 120 mg/g | Solubility ([4]; in TPGS + 5 vol % PEG1000 + 100 ppm AP, 45° C., 96 h): 186 mg/g | Solubility ([4]; in TPGS + 5 vol % PEG1000, 45° C., 24 h): 263 mg/g | Solubility ([4]; in TPGS + 10 vol % PEG1000 + 100 ppm AP, 45° C., 96 h): 157 mg/g | Solubility ([4]; in TPGS + 10 vol % PEG1000, 45° C., 24 h): 206 mg/g | Solubility ([4]; in TPGS + 15 vol % PEG1000 + 100 ppm AP, 45° C., 96 h): 144 mg/g | Solubility ([4]; in TPGS + 15 vol % PEG1000, 45° C., 24 h): 179 mg/g | Solubility ([4]; in TPGS + 100 ppm AP, 45° C., 96 h): 225 mg/g | Solubility ([4]; in TPGS, 45° C., 24 h): 274 mg/g
